In publication PMC8447191, “Peptide Amphiphilic-Based Supramolecular Structures with Anti-HIV-1 Activity” (Bioconjugate Chemistry, 2021):
pIC50: −log10 of the molar value. *1 amine or outer side, *2 acyl side, *3 side chain or, on linkers, in order; H or OH if unused. Where a SMILES comes first, the peptide text is derived from it. Side-chain parts run from the residue outwards. The star is where a group is joined. PEG28 = NCCOCCOCCOCCOCCOCCOCCOCCOCCOCCOCCOCCOCCOCCOCCOCCOCCOCCOCCOCCOCCOCCOCCOCCOCCOCCOCCOCCOCCC(=O)O; N(octadecyl)2 = CCCCCCCCCCCCCCCCCCN(CCCCCCCCCCCCCCCCCC)*; Suc = O=C(CCC(=O)[*:2])[*:1]

Experiments:
HIV-1BaL = format: cell-based; details: HIV-1BaL, TZM-bl cells; peptide 10-0.00061 μM for 1 h at 37 °C before virus; luciferase after 48 h; sigmoid fit; mean of triplicates
Experimental: HIV-1BaL[52] was provided by the NIH AIDS Research & Reference Reagent Program (http://www.aidsreagent.org/). Viral stock was prepared by passage through activated PBMCs[53] for 11 days.
Luciferase-reporter HeLa cells stably transfected to express CD4 and CCR5; TZM-bl cells[54]−[56] were grown in Dulbecco’s Minimal Essential Medium (DMEM) (Sigma-Aldrich, Inc., St. Louis, MO) containing 10% fetal calf serum (FCS), 2 mM L-glutamine, and antibiotics (100 U of penicillin/mL, 100 μg of streptomycin/mL) at 37 °C in an atmosphere containing 5% CO2.
All inhibition assays in cellular and tissue explants models were performed using a standardized amount of virus culture supernatant normalized for infectivity. TZM-bl cells were incubated with serial dilutions of peptides (from 10 μM to 0.00061 μM) for 1 h at 37 °C, prior to challenge with HIV-1BaL. Luciferase expression (r.l.u. values) was determined after 48 h. Alternatively, tissue explants were incubated with serial dilutions of peptide (from 100 μM to 0.1 μM) for 1 h before virus (10^4 TCID50/mL) was added for 2 h. Explants were then washed four times with PBS to remove unbound virus and drug. Colorectal explants were then transferred onto gelfoam rafts (Welbeck Pharmaceuticals, UK) and cultured for 15 days as described previously[57] […]. Explants were cultured for up to 15 days in the absence of peptide. Approximately 50% of the supernatants were harvested every 2–3 days and explants were re-fed with fresh media. The extent of viral replication in tissue explants was determined by measuring the p24 antigen concentration in supernatants (INNOTEST HIV antigen mAb; Fujirebio Europe, Belgium). The extent of inhibition by each peptide was calculated. The percentage of inhibition was normalized relative to the r.l.u, for TZM-bl cells, or p24, for tissue explants, values obtained for cells or explants cultured in the absence of virus (100% inhibition) and for cells or explants infected with virus in the absence of peptide (0% inhibition). Data are the mean (±SEM) of triplicates. When a dose–response curve was obtained, IC50 and, if possible, IC95 values were calculated from sigmoid curve fits (GraphPad Prism). For all curves, R^2 is >0.7.

MTT cytotoxicity assay = format: cell-based; details: human, HeLa-env cells, PAs coassembled with 5% FAM, 40-2.3 μM, absorbance 560 nm
Experimental: The metabolic activity of the cell line, related to the cytotoxic effect of the compounds to be tested, is measured after 24 h using the MTT assay. This assay is based on the metabolic reduction of 3-(4,5-dimethylthiazol-2-yl)-2,5-diphenyl-2H-tetrazolium bromide (MTT), carried out by the mitochondrial enzyme succinate dehydrogenase, in a colored compound of blue color (formazan) that can be monitored by absorbance spectroscopy at 560 nm, allowing determination of the mitochondrial functionality of the treated cells.
The HeLa-env cell line is seeded in 96-well plates with an initial density of 15,000 cells per well in 100 μL of culture medium (Dulbecco’s modified Eagle’s medium, DMEM, with 10% FBS added) and incubated for 24 h at 37 °C and 5% CO2 to allow their adhesion. The cell monolayers are washed with PBS, and then 100 μL of PAs formulations (peptide amphiphiles coassembled with 5% FAM) are added in a concentration range from 40 μM to 2.3 μM. The plates are kept in incubation for further 24 h.
At the end of the incubation time, the cells are incubated for 3 h with 1 mg/mL of MTT, dissolved in culture medium without FBS, to allow the formation of formazan crystals. Subsequently, 100 μL of DMSO are added to wells, stirring the plates for 30 min at room temperature to facilitate the complete dissolution of the crystals. Finally, the absorbance at 560 nm is measured in a microplate reader.
The results are expressed as relative percentage between absorbance of PA formulations against absorbance of its DMSO controls and CC50 and CC25 values are taken from dose–response curves.

[1] = Visual stability and aspect of POPC vesicles mixed with PAs (SAXS samples); format: physicochemical; details: POPC 20 mM + 2 mM PA, 0.5% DMSO
Experimental: In Figure 5A,B, we show the spectra corresponding to POPC 20 mM and POPC 20 mM + 2 mM PAs (all of them in the presence of 0.5% DMSO). The band centered at 1.2 nm^–1 and the secondary band at 3.2 nm^–1 were typical of unilamellar vesicles.[35]
The incorporation of PAs had some distinct consequences. The first and more obvious one is the distinction between stable and unstable systems.

Question: With CCCCCCCCCCCCCCCCCCN(CCCCCCCCCCCCCCCCCC)C(=O)CCC(=O)NCCOCCOCCOCCOCCOCCOCCOCCOCCOCCOCCOCCOCCOCCOCCOCCOCCOCCOCCOCCOCCOCCOCCOCCOCCOCCOCCOCCOCCC(=O)NCCCC[C@H](NC(=O)[C@H](Cc1c[nH]c2ccccc12)NC(=O)[C@H](CC(C)C)NC(=O)[C@H](Cc1ccc(O)cc1)NC(=O)[C@H](CCC(=O)O)NC(=O)[C@H](CC(C)C)NC(=O)[C@@H](NC(=O)[C@@H](N)Cc1c[nH]c2ccccc12)[C@@H](C)CC)C(=O)N[C@H](C(=O)N1CCC[C@H]1C(=O)N[C@@H](Cc1ccccc1)C(=O)N[C@@H](CC(=O)O)C(=O)N[C@@H](Cc1ccccc1)C(=O)N[C@@H](Cc1c[nH]c2ccccc12)C(=O)N[C@@H](CCCNC(=N)N)C(=O)NCC(=O)N[C@H](C(=O)N[C@H](C(N)=O)[C@@H](C)CC)C(C)C)C(C)C [K-PAdialkyl] (H-WILEYLWK([PEG28-Suc-N(octadecyl)2])VPFDFWRGVI-NH2) as the compound, how does the pIC50 (HIV-1BaL) read?
Answer: 7.30

Question: And the CC50 at 24 h (MTT cytotoxicity assay)?
Answer: > 40000 nM

Question: What about the “stability / aspect of the sample” value [1] of the same compound?
Answer: milky

Question: And the vesicular bilayer thickness?
Answer: 9 nm
